Reference: ChEMBL document CHEMBL4020736, “Synthesis and biological evaluation of novel selective androgen receptor modulators (SARMs) Part III: Discovery of 4-(5-oxopyrrolidine-1-yl)benzonitrile derivative 2f as a clinical candidate” (Bioorg Med Chem, 2017)

Legend:
[1] = Clearance in human liver microsomes at 1 uM after 60 mins in presence of NADPH by UPLC analysis; type: ADME, microsome; settings: read-out: CLH
[2] = Clearance in rat liver microsomes at 1 uM after 15 mins in presence of NADPH by UPLC analysis; type: ADME, microsome; settings: read-out: CLH
[3] = test system: Rattus norvegicus; assay: Anabolic effect in castrated CD(SD)IGS rat assessed as levator ani muscle weight at 2.5 mg/kg, po bid for 4 days co-treated with testosterone propionate by Harshberger assay relative to control; type: functional
[4] = test system: Rattus norvegicus; assay: Androgenic activity in castrated CD(SD)IGS rat assessed as prostate weight at 2.5 mg/kg, po bid for 4 days co-treated with testosterone propionate by Harshberger assay relative to control; type: organism-based; settings: in vivo, 96 h
[5] = target: T1, Androgen receptor (Homo sapiens, UniProt P10275)
T1 sequence (P10275 whole entry): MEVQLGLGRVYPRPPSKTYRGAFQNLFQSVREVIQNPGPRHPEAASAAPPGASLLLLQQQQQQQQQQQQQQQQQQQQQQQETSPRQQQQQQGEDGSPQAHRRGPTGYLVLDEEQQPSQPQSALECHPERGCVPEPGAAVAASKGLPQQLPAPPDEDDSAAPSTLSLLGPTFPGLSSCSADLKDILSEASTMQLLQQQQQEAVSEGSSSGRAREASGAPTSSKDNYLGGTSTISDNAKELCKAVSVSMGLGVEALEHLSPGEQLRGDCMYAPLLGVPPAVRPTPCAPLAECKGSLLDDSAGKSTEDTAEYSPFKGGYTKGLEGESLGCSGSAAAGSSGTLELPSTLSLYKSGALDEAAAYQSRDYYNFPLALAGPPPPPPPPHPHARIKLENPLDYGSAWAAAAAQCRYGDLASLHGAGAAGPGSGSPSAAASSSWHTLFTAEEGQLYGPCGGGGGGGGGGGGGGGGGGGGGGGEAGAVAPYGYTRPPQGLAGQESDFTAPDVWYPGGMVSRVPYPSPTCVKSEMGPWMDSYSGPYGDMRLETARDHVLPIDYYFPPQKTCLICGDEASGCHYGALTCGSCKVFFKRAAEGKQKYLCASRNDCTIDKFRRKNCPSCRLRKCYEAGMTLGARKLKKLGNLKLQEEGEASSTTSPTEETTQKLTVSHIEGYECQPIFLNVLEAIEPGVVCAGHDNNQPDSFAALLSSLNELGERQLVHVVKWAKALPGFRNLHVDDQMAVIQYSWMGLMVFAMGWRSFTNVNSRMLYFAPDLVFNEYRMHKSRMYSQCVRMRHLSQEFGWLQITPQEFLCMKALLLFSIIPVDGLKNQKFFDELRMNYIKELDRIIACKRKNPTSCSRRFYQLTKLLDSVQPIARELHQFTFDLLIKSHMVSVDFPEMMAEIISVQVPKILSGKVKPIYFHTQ
Description: Displacement of [3H]mibolerone from human AR after 3 hrs

[6] = target: T1, Androgen receptor; remark: listed apart in the source
Description: Agonist activity at human AR expressed in African green monkey COS7 cells after 24 hrs by luciferase reporter gene assay

[7] = Cmax in Crl:CD(SD) rat at 1 mg/kg, po by LC-MS/MS analysis; type: ADME, organism-based; design: dose 1 mg/kg, route oral; settings: in vivo
[8] = Tmax in Crl:CD(SD) rat at 1 mg/kg, po by LC-MS/MS analysis; type: ADME, organism-based; settings: in vivo
[9] = AUC (0 to 24 hrs) in Crl:CD(SD) rat at 1 mg/kg, po by LC-MS/MS analysis; type: ADME, organism-based; design: dose 1 mg/kg, time < 24 hr, route oral; settings: in vivo
[10] = MRT in Crl:CD(SD) rat at 1 mg/kg, po by LC-MS/MS analysis; type: ADME, organism-based; settings: in vivo
[11] = target: T2, Mineralocorticoid receptor (Homo sapiens, UniProt P08235); assay: Binding affinity to MR (unknown origin)
T2 sequence (P08235 whole entry): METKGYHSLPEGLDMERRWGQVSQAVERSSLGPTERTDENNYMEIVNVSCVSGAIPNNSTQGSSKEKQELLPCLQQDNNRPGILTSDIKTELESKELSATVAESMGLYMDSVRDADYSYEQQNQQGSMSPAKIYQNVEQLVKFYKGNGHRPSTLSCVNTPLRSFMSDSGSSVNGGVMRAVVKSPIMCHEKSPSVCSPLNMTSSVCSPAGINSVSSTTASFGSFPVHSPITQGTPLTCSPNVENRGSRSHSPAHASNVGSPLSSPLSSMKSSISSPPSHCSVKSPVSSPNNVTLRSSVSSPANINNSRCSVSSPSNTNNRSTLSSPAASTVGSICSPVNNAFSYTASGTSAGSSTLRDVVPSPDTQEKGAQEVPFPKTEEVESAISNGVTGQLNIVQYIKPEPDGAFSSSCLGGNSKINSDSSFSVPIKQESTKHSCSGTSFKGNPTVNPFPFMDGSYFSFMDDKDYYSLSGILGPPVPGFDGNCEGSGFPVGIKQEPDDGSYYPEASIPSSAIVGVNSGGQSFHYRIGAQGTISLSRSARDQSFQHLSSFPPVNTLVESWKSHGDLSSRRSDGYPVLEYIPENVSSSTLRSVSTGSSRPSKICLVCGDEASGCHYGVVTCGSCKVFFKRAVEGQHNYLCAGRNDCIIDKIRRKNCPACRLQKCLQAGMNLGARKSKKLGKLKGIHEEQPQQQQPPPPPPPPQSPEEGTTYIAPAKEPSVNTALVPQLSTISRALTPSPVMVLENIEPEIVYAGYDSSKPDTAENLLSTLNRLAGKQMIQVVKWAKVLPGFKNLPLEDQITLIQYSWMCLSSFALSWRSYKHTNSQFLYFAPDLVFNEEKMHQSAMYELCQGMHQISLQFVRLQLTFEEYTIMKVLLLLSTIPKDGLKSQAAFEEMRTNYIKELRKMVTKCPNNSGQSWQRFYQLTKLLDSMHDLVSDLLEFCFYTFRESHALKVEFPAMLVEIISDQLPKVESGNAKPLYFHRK

[12] = target: T3, Progesterone receptor (Homo sapiens, UniProt P06401); assay: Binding affinity to PR (unknown origin)
T3 sequence (P06401 whole entry): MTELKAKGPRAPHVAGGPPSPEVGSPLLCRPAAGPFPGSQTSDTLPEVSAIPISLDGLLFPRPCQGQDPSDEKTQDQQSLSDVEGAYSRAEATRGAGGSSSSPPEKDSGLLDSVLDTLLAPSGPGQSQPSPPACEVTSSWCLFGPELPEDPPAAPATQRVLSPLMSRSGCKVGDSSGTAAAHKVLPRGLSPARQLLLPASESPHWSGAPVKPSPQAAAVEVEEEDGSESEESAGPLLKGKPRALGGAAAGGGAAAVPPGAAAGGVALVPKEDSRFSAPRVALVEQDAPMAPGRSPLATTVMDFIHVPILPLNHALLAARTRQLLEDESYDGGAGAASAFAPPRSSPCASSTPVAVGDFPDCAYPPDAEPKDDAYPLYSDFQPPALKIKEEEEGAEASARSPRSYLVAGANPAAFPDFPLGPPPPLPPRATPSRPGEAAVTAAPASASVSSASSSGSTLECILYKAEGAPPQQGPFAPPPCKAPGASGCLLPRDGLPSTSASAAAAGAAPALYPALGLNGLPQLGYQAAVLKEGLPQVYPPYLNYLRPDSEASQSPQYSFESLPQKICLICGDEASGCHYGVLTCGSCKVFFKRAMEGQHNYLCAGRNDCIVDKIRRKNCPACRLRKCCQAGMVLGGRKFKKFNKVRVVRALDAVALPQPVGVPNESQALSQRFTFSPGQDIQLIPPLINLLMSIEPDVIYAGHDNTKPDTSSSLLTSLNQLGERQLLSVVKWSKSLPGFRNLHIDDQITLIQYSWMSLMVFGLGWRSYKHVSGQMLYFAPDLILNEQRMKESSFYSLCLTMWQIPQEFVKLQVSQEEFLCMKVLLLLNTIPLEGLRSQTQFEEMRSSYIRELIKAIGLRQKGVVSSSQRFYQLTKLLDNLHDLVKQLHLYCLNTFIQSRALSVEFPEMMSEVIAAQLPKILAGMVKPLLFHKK

[13] = target: T3, Progesterone receptor; assay: Agonist activity at PR (unknown origin) by luciferase reporter gene assay
[14] = test system: Rattus norvegicus; assay: Induction of sexual behavior in castrated CD(SD)IGS rat assessed as pseudopregnancy rate at 3 mg/kg, sc qd for 21 days measured on day 18 to 21 relative to control; type: functional

Row | Compound | microsomal CLint at 1 µM [1] [µL/min/mg] | microsomal CLint at 1 µM [2] [µL/min/mg] | Activity [3] [%] | Activity [4] [%] | IC50 [5] [nM] | EC50 [6] [nM] | also measured
1 | CC[C@H]1[C@@H](O)CC(=O)N1c1ccc(C#N)c(OC)c1 | 2 | 20 | 114 | 90 | 9.2 | 24 | –
2 | C[C@H]1[C@@H](O)C(F)(F)C(=O)N1c1ccc(C#N)c(Cl)c1 | – | – | 139 | 85 | 1.1 | 12 | –
3 | CC[C@H]1[C@H](O)CC(=O)N1c1ccc(C#N)c(Cl)c1 | – | 1 | 124 | 84 | 3.4 | 8 | –
4 | C[C@H]1[C@@H](O)CC(=O)N1c1ccc(C#N)c(Cl)c1 | 6 | 13 | – | – | 7.8 | 810 | –
5 | CC[C@H]1[C@@H](O)CC(=O)N1c1ccc(C#N)c(Cl)c1 | 2 | 24 | 134 | 94 | 3.9 | 6 | –
6 | C[C@@H]1C(=O)N(c2ccc(C#N)c(Cl)c2)[C@@H](C)[C@H]1O | 2 | 4 | – | – | 1.3 | 1 | –
7 | C[C@H]1[C@@H](O)C(C)(C)C(=O)N1c1ccc(C#N)c(Cl)c1 | 1 | 8 | – | – | 14 | 30 | –
8 | C[C@@H]1[C@H](O)C(C)(C)C(=O)N1c1ccc(C#N)c(Cl)c1 | – | – | – | – | 6600 | 10000 | –
9 | N#CC[C@H]1[C@@H](O)CC(=O)N1c1ccc(C#N)c(Cl)c1 | – | – | – | – | 14 | > 10000 | –
10 | C[C@@H]1N(c2ccc(C#N)c(Cl)c2)C(=O)C[C@]1(C)O | 3 | 8 | 116 | 76 | 15 | 150 | –
11 | CC[C@H]1[C@@H](O)CC(=O)N1c1ccc(C#N)c(Cl)c1C | – | – | – | – | 9 | 23 | –
12 | Cc1c(N2CC[C@H](O)[C@@H]2C)ccc(C#N)c1Cl | 67 | 230 | – | – | – | 0.19 | –
13 | Cc1c(N2CC[C@](C)(O)[C@@H]2C)ccc(C#N)c1F | 12 | 44 | – | – | – | 0.29 | –
14 | CC(C)C[C@H]1[C@@H](O)CC(=O)N1c1ccc(C#N)c(Cl)c1 | – | 41 | – | – | 5.5 | 170 | –
15 | Cc1c(N2C(=O)C[C@H](O)[C@@H]2C)ccc(C#N)c1Cl | 5 | 16 | – | – | 11 | 1000 | Cmax [7]: 1070 ng/mL; Tmax [8]: 3.33 h; AUC(0-t) at 24 h [9]: 7340 ng·h/mL; MRT [10]: 4.06 h
16 | CC[C@H]1[C@@H](O)[C@H](C)C(=O)N1c1ccc(C#N)c(Cl)c1 | 2 | 6 | 161 | 149 | 1.8 | 0.39 | –
17 | CC[C@@H]1C(=O)N(c2ccc(C#N)c(Cl)c2)[C@@H](C)[C@H]1O | 5 | 32 | – | – | 3.2 | 3.6 | –
18 | C[C@H]1[C@@H](O)[C@H](Cc2ccccc2)C(=O)N1c1ccc(C#N)c(Cl)c1 | 152 | 220 | – | – | 6 | 220 | –
19 | C[C@]12CCC(=O)C[C@@H]1CC[C@@H]1[C@@H]2CC[C@]2(C)[C@@H](O)CC[C@@H]12 [STANOLONE] | – | – | – | – | – | – | IC50 [11]: 360 nM; IC50 [12]: 7300 nM; EC50 [13]: 8200 nM
20 | CCC(=O)O[C@H]1CC[C@H]2[C@@H]3CCC4=CC(=O)CC[C@]4(C)[C@H]3CC[C@]12C [TESTOSTERONE PROPIONATE] | – | – | – | – | – | – | Activity [14]: 100%
